Reference: patent US9206164B2, “Pyrazole compounds as CRTH2 antagonists” (Boehringer Ingelheim International GmbH, priority 2011, dated 2015)

What follows are compounds tested against human CRTH2 receptor (Homo sapiens (Human), UniProt Q9Y5Y4) (assay: CRTH2 receptor radioligand binding assay (SPA, [3H]-PGD2 displacement)). Conditions: antagonistic activities of selected compounds.
Sequence of human CRTH2 receptor (Q9Y5Y4 whole entry): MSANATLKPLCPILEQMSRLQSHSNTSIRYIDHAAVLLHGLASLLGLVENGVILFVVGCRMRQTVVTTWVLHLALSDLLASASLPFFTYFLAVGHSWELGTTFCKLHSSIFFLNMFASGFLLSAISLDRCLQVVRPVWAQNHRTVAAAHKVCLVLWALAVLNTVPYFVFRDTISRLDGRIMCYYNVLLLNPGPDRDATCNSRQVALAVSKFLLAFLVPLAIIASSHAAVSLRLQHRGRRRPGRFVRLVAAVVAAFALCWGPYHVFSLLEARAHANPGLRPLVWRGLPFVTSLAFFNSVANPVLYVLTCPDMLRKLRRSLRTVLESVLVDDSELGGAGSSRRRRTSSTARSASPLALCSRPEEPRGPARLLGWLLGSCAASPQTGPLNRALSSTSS
Description: The binding of CRTH2 antagonists is determined using membranes prepared from Chinese hamster ovary cells (CHO-K1 cells) transfected with the human CRTH2 receptor (CHO-K1-hCRTH2 cells, Perkin Elmer, Cat No ES-561-C). To produce cell membranes the CHO-K1-hCRTH2 cells are cultured in suspension in CHO SFMII medium supplemented with 400 μg/ml G418. The cells are harvested by centrifugation at 300 g for 10 min at room temperature. The cell pellet is resuspended in Phosphate Buffer Saline (PBS) including a protease inhibitor mix (Complete, Roche) and adjusted to a concentration of 10E7 cells/ml. The CHO-K1-hCRTH2 cells are disrupted by nitrogen […] to obtain the membrane preparation. Cell debris is removed by centrifugation (500 g at 4° C., 30 min) and the supernatant is transferred into fresh tubes followed by a second centrifugation at 40000 g for 1 h at 4° C. to sediment the membranes. The membranes are suspended in SPA incubation buffer (50 mM Tris HCl, 10 mM MgCl2, 150 mM NaCl, 1 mM EDTA, pH 7.4) without bovine serum albumin, homogenized by passing through a single use needle (Terumo, 23G×1″), and stored in aliquots at −80° C.
The CRTH2 receptor binding assay is performed in a scintillation proximity assay (SPA) format with the radioligand [^3H]-PGD2 (Perkin Elmer, NET616000MC). CHO-K1-hCRTH2 cell membranes are again homogenized by passing through a single use needle (Terumo, 23G×1″) and diluted in SPA incubation buffer in suitable concentrations (0.5-10 μg protein/well). The SPA assay is set up in 96 well microtiter plates (Perkin Elmer, CatNo. 6005040) in SPA incubation buffer with a final volume of 200 μl per well and final concentration of 50 mM Tris-HCl, 10 mM MgCl2, 150 mM NaCl, 1 mM EDTA pH 7.4, 0.1% bovine serum albumin). The SPA assay mixture contains 60 μl of the membrane suspension, 80 μl of Wheat Germ Agglutinin coated PVT beads (GE Healthcare, RPNQ-0001, 0.3 mg/well), 40 μl of [^3H]-PGD2 diluted in SPA buffer to a final concentration of 1 nM (50 000 dpm) and 20 μl of the test compound (dissolved in dimethylsulfoxid). The SPA assay mixture is incubated for 3 h at room temperature. Bound radioactivity is determined with a scintillation counter (Micro Beta Trilux, Wallac).
The binding of [^3H]-PGD2 to CHO-K1-hCRTH2 cell membranes is determined in the absence (total binding, Bo) and presence (non-specific binding, NSB) of unlabelled PGD2 (1 μM, Cayman Chemical, Cat No 12010) or a reference CRTH2 antagonist (10 μM CAY10471, Cayman Chemical, Cat No 10006735).
Determination of the affinity of a test compound is calculated by subtraction of the non-specific binding (NSB) from the total binding (Bo) or the binding in the presence of the test compound (B) at a given compound concentration. The NSB value is set to 100% inhibition. The Bo−NSB value is set to 0% inhibition.
% inhibition values were obtained at a defined compound concentration, e.g. at 1 μM, % inhibition of the test compound was calculated by the formula 100−((B−NSB)*100/(Bo−NSB)). % inhibition values above 100% are founded by assay variance.
In the case of CCc1nn(Cc2ccc(-c3nc4c(F)cccc4[nH]3)cc2)c(CC)c1CC(=O)O [Compound 67], the Ki is reported as 1.7 nM.
CCc1nn(Cc2ccc(-c3nc4cc(C(C)(C)C)ccc4[nH]3)cc2)c(CC)c1CC(=O)O [Compound 68] gave a Ki of 0.2 nM.
Work on CCc1nn(Cc2ccc(-c3nc4cc(Cl)ccc4n3C)cc2)c(CC)c1CC(=O)O [Compound 69] yielded a Ki of 61.2 nM.
For Cc1nn(Cc2ccc(-c3nc4cncnc4[nH]3)cc2)c(C)c1CC(=O)O [Compound 70], the Ki was 432 nM.
Compound Cc1nn(Cc2ccc(-c3nc4cc(F)ccc4[nH]3)cc2)c(C)c1CC(=O)O [Compound 71] has a Ki of 8.5 nM.
Compound Cc1nn(Cc2ccc(-c3nc4ccncc4[nH]3)cc2F)c(C)c1CC(=O)O [Compound 72] has a Ki of 636 nM.
Cc1nn(Cc2ccc(-c3nc4c(Cl)cc(Cl)cc4[nH]3)cc2F)c(C)c1CC(=O)O [Compound 73] was tested, and the Ki was 2.5 nM.
For CCc1nn(Cc2ccc(-c3nc4c(F)cccc4[nH]3)cc2F)c(CC)c1CC(=O)O [Compound 74], the Ki was 1.2 nM.
CCc1nn(Cc2ccc(-c3nc4cc(OC)ccc4[nH]3)cc2F)c(CC)c1CC(=O)O [Compound 75] showed a Ki of 1 nM.
Work on CCc1nn(Cc2ccc(-c3nc4cc(F)c(Cl)cc4[nH]3)cc2F)c(CC)c1CC(=O)O [Compound 76] yielded a Ki of 0.6 nM.
Compound Cc1nn(Cc2ccc(-c3nc4c(F)cc(F)cc4[nH]3)cc2F)c(C)c1CC(=O)O [Compound 77] has a Ki of 5.5 nM.
Cc1nn(Cc2ccc(-c3nc4cc(C#N)ccc4[nH]3)cc2F)c(C)c1CC(=O)O [Compound 78] showed a Ki of 21.7 nM.
In the case of CCc1nn(Cc2ccc(-c3nc4nc(OC)ccc4[nH]3)cc2F)c(CC)c1CC(=O)O [Compound 79], the Ki is reported as 1.3 nM.
CCc1nn(Cc2ccc(-c3nc4cc(Cl)ccc4[nH]3)cc2F)c(CC)c1CC(=O)O [Compound 80] gave a Ki of 0.5 nM.
CCc1nn(Cc2ccc(-c3nc4cc(C#N)ccc4[nH]3)cc2F)c(CC)c1CC(=O)O [Compound 81] gave a Ki of 2.6 nM.
CCc1nn(Cc2ccc(-c3nc4cc(F)ccc4[nH]3)cc2F)c(CC)c1CC(=O)O [Compound 82] showed a Ki of 1 nM.
With CCc1nn(Cc2ccc(-c3nc4c(C)cccc4[nH]3)cc2F)c(CC)c1CC(=O)O [Compound 83] the Ki was 1.3 nM.
For CCc1nn(Cc2ccc(-c3nc4c(F)c(F)ccc4[nH]3)cc2F)c(CC)c1CC(=O)O [Compound 84], the Ki was 0.8 nM.
For Cc1nn(Cc2ccc(-c3nc4cncc(C)c4[nH]3)cc2F)c(C)c1CC(=O)O [Compound 85], the Ki was 683 nM.
For Cc1nn(Cc2ccc(-c3nc4cc(F)ccc4[nH]3)cc2F)c(C)c1CC(=O)O [Compound 86], the Ki was 6.5 nM.
For CCc1nn(Cc2ccc(-c3nc4cc(Br)ccc4[nH]3)cc2F)c(CC)c1CC(=O)O [Compound 87], the Ki was 0.4 nM.
Compound CCc1nn(Cc2ccc(-c3nc4cc(Br)cnc4[nH]3)cc2F)c(CC)c1CC(=O)O [Compound 89] has a Ki of 2.6 nM.
Compound CCc1nn(Cc2ccc(-c3nc4ccncc4[nH]3)cc2F)c(CC)c1CC(=O)O [Compound 90] has a Ki of 60.9 nM.
In the case of Cc1ccc2[nH]c(-c3ccc(Cn4nc(C)c(CC(=O)O)c4C)c(F)c3)nc2c1 [Compound 91], the Ki is reported as 3.7 nM.
Work on COc1ccc2[nH]c(-c3ccc(Cn4nc(C)c(CC(=O)O)c4C)c(F)c3)nc2n1 [Compound 92] yielded a Ki of 0.7 nM.
Cc1nn(Cc2ccc(-c3nc4c(C)cccc4[nH]3)cc2F)c(C)c1CC(=O)O [Compound 93] gave a Ki of 12.8 nM.
With Cc1nn(Cc2ccc(-c3nc4cc(Br)ccc4[nH]3)cc2F)c(C)c1CC(=O)O [Compound 94] the Ki was 1.6 nM.
In the case of CCc1nn(Cc2ccc(-c3nc4cc(Cl)cnc4[nH]3)cc2F)c(CC)c1CC(=O)O [Compound 95], the Ki is reported as 5.1 nM.
COc1ccc2[nH]c(-c3ccc(Cn4nc(C)c(CC(=O)O)c4C)c(F)c3)nc2c1 [Compound 96] was tested, and the Ki was 5.7 nM.
For Cc1nn(Cc2ccc(-c3nc4cc(C(C)(C)C)ccc4[nH]3)cc2F)c(C)c1CC(=O)O [Compound 97], the Ki was 0.9 nM.
CCc1nn(Cc2ccc(-c3nc4cc(C(C)(C)C)ccc4[nH]3)cc2F)c(CC)c1CC(=O)O [Compound 98] showed a Ki of 0.1 nM.
Cc1nn(Cc2ccc(-c3nc4c(F)cccc4[nH]3)cc2F)c(C)c1CC(=O)O [Compound 99] showed a Ki of 9.7 nM.
Cc1nn(Cc2ccc(-c3nc4cc(Cl)cnc4[nH]3)cc2F)c(C)c1CC(=O)O [Compound 100] was tested, and the Ki was 18.5 nM.
Work on CCc1nn(Cc2ccc(-c3nc4c(F)cc(F)cc4[nH]3)cc2F)c(CC)c1CC(=O)O [Compound 101] yielded a Ki of 1.1 nM.
Cc1nn(Cc2ccc(-c3nc4cc(F)c(Cl)cc4[nH]3)cc2F)c(C)c1CC(=O)O [Compound 102] gave a Ki of 2.1 nM.
For CCc1nn(Cc2ccc(-c3nc4cncc(C)c4[nH]3)cc2F)c(CC)c1CC(=O)O [Compound 103], the Ki was 87.6 nM.
With CCc1nn(Cc2ccc(-c3nc4c(Cl)cc(Cl)cc4[nH]3)cc2F)c(CC)c1CC(=O)O [Compound 104] the Ki was 0.7 nM.
Cc1nn(Cc2ccc(-c3nc4c(F)c(F)ccc4[nH]3)cc2F)c(C)c1CC(=O)O [Compound 105] gave a Ki of 5.1 nM.
Compound CCc1nn(Cc2ccc(-c3nc4cc(C)c(Cl)cc4[nH]3)cc2F)c(CC)c1CC(=O)O [Compound 106] has a Ki of 0.3 nM.
Compound Cc1nn(Cc2ccc(-c3nc4cccnc4[nH]3)cc2F)c(C)c1CC(=O)O [Compound 107] has a Ki of 87.4 nM.
With Cc1nn(Cc2ccc(-c3nc4cc(Cl)ccc4[nH]3)cc2F)c(C)c1CC(=O)O [Compound 108] the Ki was 2.3 nM.
In the case of Cc1cc2nc(-c3ccc(Cn4nc(C)c(CC(=O)O)c4C)c(F)c3)[nH]c2cc1Cl [Compound 109], the Ki is reported as 1.8 nM.
Cc1nn(Cc2cccc(-c3nc4cc(C(F)(F)F)ccc4[nH]3)c2)c(C)c1CC(=O)O [Compound 110] was tested, and the Ki was 287 nM.
With Cc1nn(Cc2ccc(-c3nc4cc(C(F)(F)F)ccc4[nH]3)cc2F)c(C)c1CC(=O)O [Compound 111] the Ki was 2.5 nM.
With “(3,5-Diethyl-1-[2-fluoro-4-(3H-imidazo[4,5-b]pyridin-2-yl)benzyl]-1H-pyrazol-4-yl)acetic Acid [Compound 13]” the Ki was 16.2 nM.
